Results reported in patent US20260000620A1, “ORAL DOSAGE FORMS” (priority 2022, published 2026).
Positions of bridges follow the written chain, without caps; N, C: chain ends. Residues, ends and D or L forms follow the SMILES beside them.

Columns and labels:
[1] = dog, in vivo, iv
Experimental: (§1) A dog PK study with terlipressin capsules was carried out essentially as described in Example 2. The key differences are as follows:
(§2) Test article administration: Animals were fasted for at least 12 hours prior to dosing and through the first 4 hours of blood sample collection (food was returned within 30 minutes following collection of the last blood sample at the 4 hour collection interval).
(§3) Intravenous administration: Animals in Phase 1 (groups 1 and 2) received a single iv of glypressin of 0.04 or 0.2 mg terlipressin base (0.24 or 1.2 mL/animal, respectively). Dosing was performed by 1 minute slow injection via the cephalic vein, using a catheter.
(§4) Blood collection: Blood samples (approximately 3 mL/sample) were collected from the jugular vein in the following time points:
(§5) Blood samples were placed into tubes containing K2EDTA. The samples were centrifuged under refrigerated (2 to 8° C.) conditions within 30 minutes of sample collection and the resulting plasma was separated and split into two approximately equal aliquots. Each plasma sample was placed into pre-chilled tubes that were placed on dry ice until frozen at −60° to −90° C. Bioanalysis was performed for plasma concentrations of both terlipressin and LVP.
(§6) Bioanalysis of plasma samples was performed using a LC-MS/MS method for quantitation of terlipressin and [Lys8]—Vasopressin in Dog Plasma.

in vivo = settings: beagle, dog, iv
Experimental: as §1, §2, §3, §4, §5, §6

Structure (SMILES): NCCCC[C@H](NC(=O)[C@@H]1CCCN1C(=O)[C@@H]1CSSC[C@H](NC(=O)CNC(=O)CNC(=O)CN)C(=O)N[C@@H](Cc2ccc(O)cc2)C(=O)N[C@@H](Cc2ccccc2)C(=O)N[C@@H](CCC(N)=O)C(=O)N[C@@H](CC(N)=O)C(=O)N1)C(=O)NCC(N)=O [terlipressin, triglycyl lysine vasopressin] (H-GGGCYFQNCPKG-NH2; disulfide 4-9)
- increase of both LVP AUCs from 0.04 mg to 0.2 mg [1]: 3.7 fold
- AUC(0-inf) (in vivo; 0.04 mg): 1.77 ng·h/mL
- AUC(0-t) (in vivo; 0.04 mg): 1.82 ng·h/mL
- Cmax (in vivo; 0.04 mg): 12.6 ng/mL
- Tmax (in vivo; 0.04 mg): 4.98 min
- half-life (in vivo; 0.04 mg): 4.44 min
- AUC(0-inf) (in vivo; 0.2 mg): 9.14 ng·h/mL
- AUC(0-t) (in vivo; 0.2 mg): 9.13 ng·h/mL
- Cmax (in vivo; 0.2 mg): 59.1 ng/mL
- Tmax (in vivo; 0.2 mg): 4.02 min
- half-life (in vivo; 0.2 mg): 13.9 min
